Data reported in paper PMC9322189, “Development of a Personalized Tumor Neoantigen Based Vaccine Formulation (FRAME-001) for Use in a Phase II Trial for the Treatment of Advanced Non-Small Cell Lung Cancer” (Pharmaceutics, 2022).
Each block holds one sequence with its values, some of them ahead of it.

Key:
Format in all cases: physicochemical
[1] = Filter experiment: peptide adsorption to the 0.22 µm sterilization filter, UPLC-MS; conditions: unfiltered sample
[2] = Release testing and long-term (frozen) stability of aqueous peptide mixtures (143 µg/mL per peptide in PBS 10 mM pH 7.0), UPLC-MS
[3] = In-use stability of thawed aqueous peptide mixtures at room temperature, UPLC-MS; conditions: 4 h room temperature

Peak ratio ([1]; in FRM001M2): 27.7%
Peptide peak ratio ([2]; in FRM001-M2, 2 w −25 °C): 22.0%
Peptide peak ratio ([2]; in FRM001-M2, 4 w −25 °C): 19.5%
Peptide peak ratio ([2]; in FRM001-M2, 8 w −25 °C): 19.6%
Peptide peak ratio ([2]; in FRM001-M2, 8 w −80 °C): 20.5%
Peptide peak ratio ([2]; in FRM001-M2, 12 w −25 °C): 18.1%
Peptide peak ratio ([2]; in FRM001-M2, 12 w −80 °C): 20.0%
Peptide peak ratio ([2]; in FRM001-M2, 16 w −25 °C): 17.9%
Peptide peak ratio ([2]; in FRM001-M2, 16 w −80 °C): 19.5%
Peptide peak ratio ([2]; in FRM001-M2, 32 w −25 °C): 20.3%
Peptide peak ratio ([2]; in FRM001-M2, 32 w −80 °C): 22.6%
Peptide peak ratio ([2]; in FRM001-M2, t = 0 w): 24.6%
Peptide peak ratio ([3]; in FRM001-M2, 2 w −25 °C): 23.0%
Peptide peak ratio ([3]; in FRM001-M2, 4 w −25 °C): 20.5%
Peptide peak ratio ([3]; in FRM001-M2, 8 w −25 °C): 21.0%
Peptide peak ratio ([3]; in FRM001-M2, 8 w −80 °C): 21.0%
Peptide peak ratio ([3]; in FRM001-M2, 12 w −25 °C): 19.7%
Peptide peak ratio ([3]; in FRM001-M2, 12 w −80 °C): 20.6%
Peptide peak ratio ([3]; in FRM001-M2, 16 w −25 °C): 18.9%
Peptide peak ratio ([3]; in FRM001-M2, 16 w −80 °C): 20.0%
Peptide peak ratio ([3]; in FRM001-M2, 32 w −25 °C): 22.7%
Peptide peak ratio ([3]; in FRM001-M2, 32 w −80 °C): 24.2%
Sequence: CKECGRPLDVVHTLLHIRAFMLIKNPMNVK [FRM001P12, neoantigen peptide, in FRM001-M2]

Peak ratio ([1]; in FRM001M1): 14.8%
Peak ratio ([1]; in FRM001M4): 14.9%
Peptide peak ratio ([2]; in FRM001-M1, 2 w −25 °C): 15.0%
Peptide peak ratio ([2]; in FRM001-M1, 4 w −25 °C): 14.6%
Peptide peak ratio ([2]; in FRM001-M1, 8 w −25 °C): 15.2%
Peptide peak ratio ([2]; in FRM001-M1, 8 w −80 °C): 15.0%
Peptide peak ratio ([2]; in FRM001-M1, 12 w −25 °C): 15.9%
Peptide peak ratio ([2]; in FRM001-M1, 12 w −80 °C): 15.5%
Peptide peak ratio ([2]; in FRM001-M1, 16 w −25 °C): 15.4%
Peptide peak ratio ([2]; in FRM001-M1, 16 w −80 °C): 15.3%
Peptide peak ratio ([2]; in FRM001-M1, 32 w −25 °C): 13.4%
Peptide peak ratio ([2]; in FRM001-M1, 32 w −80 °C): 14.2%
Peptide peak ratio ([2]; in FRM001-M1, t = 0 w, % area of peptide peak of sum of the six peptide peaks): 15.0%
Peptide peak ratio ([2]; in FRM001-M4, 2 w −25 °C): 14.5%
Peptide peak ratio ([2]; in FRM001-M4, 4 w −25 °C): 15.4%
Peptide peak ratio ([2]; in FRM001-M4, 8 w −25 °C): 15.1%
Peptide peak ratio ([2]; in FRM001-M4, 8 w −80 °C): 15.2%
Peptide peak ratio ([2]; in FRM001-M4, 12 w −25 °C): 15.1%
Peptide peak ratio ([2]; in FRM001-M4, 12 w −80 °C): 14.8%
Peptide peak ratio ([2]; in FRM001-M4, 16 w −25 °C): 12.5%
Peptide peak ratio ([2]; in FRM001-M4, 16 w −80 °C): 12.5%
Peptide peak ratio ([2]; in FRM001-M4, 32 w −25 °C): 12.9%
Peptide peak ratio ([2]; in FRM001-M4, 32 w −80 °C): 14.7%
Peptide peak ratio ([2]; in FRM001-M4, t = 0 w): 14.4%
Peptide peak ratio ([3]; in FRM001-M1, 2 w −25 °C): 15.2%
Peptide peak ratio ([3]; in FRM001-M1, 4 w −25 °C): 14.8%
Peptide peak ratio ([3]; in FRM001-M1, 8 w −25 °C): 15.3%
Peptide peak ratio ([3]; in FRM001-M1, 8 w −80 °C): 15.2%
Peptide peak ratio ([3]; in FRM001-M1, 12 w −25 °C): 15.3%
Peptide peak ratio ([3]; in FRM001-M1, 12 w −80 °C): 15.3%
Peptide peak ratio ([3]; in FRM001-M1, 16 w −25 °C): 15.5%
Peptide peak ratio ([3]; in FRM001-M1, 16 w −80 °C): 15.6%
Peptide peak ratio ([3]; in FRM001-M1, 32 w −25 °C): 14.1%
Peptide peak ratio ([3]; in FRM001-M1, 32 w −80 °C): 14.1%
Peptide peak ratio ([3]; in FRM001-M4, 2 w −25 °C): 14.7%
Peptide peak ratio ([3]; in FRM001-M4, 4 w −25 °C): 15.5%
Peptide peak ratio ([3]; in FRM001-M4, 8 w −25 °C): 15.3%
Peptide peak ratio ([3]; in FRM001-M4, 8 w −80 °C): 15.5%
Peptide peak ratio ([3]; in FRM001-M4, 12 w −25 °C): 14.8%
Peptide peak ratio ([3]; in FRM001-M4, 12 w −80 °C): 15.1%
Peptide peak ratio ([3]; in FRM001-M4, 16 w −25 °C): 12.4%
Peptide peak ratio ([3]; in FRM001-M4, 16 w −80 °C): 12.4%
Peptide peak ratio ([3]; in FRM001-M4, 32 w −25 °C): 13.1%
Peptide peak ratio ([3]; in FRM001-M4, 32 w −80 °C): 14.9%
Sequence: GCHLFSKRKCSQNKQSKRGKSRFYLSWRPL [FRM001P01, neoantigen peptide of lung tumor LUN021, in FRM001-M1 and FRM001-M4]

Peak ratio ([1]; in FRM001M4): 14.1%
Peptide peak ratio ([2]; in FRM001-M4, 2 w −25 °C): 13.6%
Peptide peak ratio ([2]; in FRM001-M4, 4 w −25 °C): 14.6%
Peptide peak ratio ([2]; in FRM001-M4, 8 w −25 °C): 14.7%
Peptide peak ratio ([2]; in FRM001-M4, 8 w −80 °C): 14.9%
Peptide peak ratio ([2]; in FRM001-M4, 12 w −25 °C): 14.4%
Peptide peak ratio ([2]; in FRM001-M4, 12 w −80 °C): 14.6%
Peptide peak ratio ([2]; in FRM001-M4, 16 w −25 °C): 13.3%
Peptide peak ratio ([2]; in FRM001-M4, 16 w −80 °C): 13.1%
Peptide peak ratio ([2]; in FRM001-M4, 32 w −25 °C): 13.6%
Peptide peak ratio ([2]; in FRM001-M4, 32 w −80 °C): 13.9%
Peptide peak ratio ([2]; in FRM001-M4, t = 0 w): 14.2%
Peptide peak ratio ([3]; in FRM001-M4, 2 w −25 °C): 13.4%
Peptide peak ratio ([3]; in FRM001-M4, 4 w −25 °C): 14.5%
Peptide peak ratio ([3]; in FRM001-M4, 8 w −25 °C): 14.4%
Peptide peak ratio ([3]; in FRM001-M4, 8 w −80 °C): 14.7%
Peptide peak ratio ([3]; in FRM001-M4, 12 w −25 °C): 14.6%
Peptide peak ratio ([3]; in FRM001-M4, 12 w −80 °C): 14.4%
Peptide peak ratio ([3]; in FRM001-M4, 16 w −25 °C): 13.1%
Peptide peak ratio ([3]; in FRM001-M4, 16 w −80 °C): 13.0%
Peptide peak ratio ([3]; in FRM001-M4, 32 w −25 °C): 13.5%
Peptide peak ratio ([3]; in FRM001-M4, 32 w −80 °C): 13.4%
Sequence: GVDYASCGHLVKIWPRRMNRSDVCTVWS [FRM001P13, neoantigen peptide, in FRM001-M4]

Peak ratio ([1]; in FRM001M2): 6.1%
Peptide peak ratio ([2]; in FRM001-M2, 2 w −25 °C): 7.2%
Peptide peak ratio ([2]; in FRM001-M2, 4 w −25 °C): 11.5%
Peptide peak ratio ([2]; in FRM001-M2, 8 w −25 °C): 11.0%
Peptide peak ratio ([2]; in FRM001-M2, 8 w −80 °C): 12.9%
Peptide peak ratio ([2]; in FRM001-M2, 12 w −25 °C): 14.2%
Peptide peak ratio ([2]; in FRM001-M2, 12 w −80 °C): 13.8%
Peptide peak ratio ([2]; in FRM001-M2, 16 w −25 °C): 9.6%
Peptide peak ratio ([2]; in FRM001-M2, 16 w −80 °C): 10.4%
Peptide peak ratio ([2]; in FRM001-M2, 32 w −25 °C): 10.8%
Peptide peak ratio ([2]; in FRM001-M2, 32 w −80 °C): 10.7%
Peptide peak ratio ([2]; in FRM001-M2, t = 0 w): 9.1%
Peptide peak ratio ([3]; in FRM001-M2, 2 w −25 °C): 8.9%
Peptide peak ratio ([3]; in FRM001-M2, 4 w −25 °C): 12.1%
Peptide peak ratio ([3]; in FRM001-M2, 8 w −25 °C): 12.1%
Peptide peak ratio ([3]; in FRM001-M2, 8 w −80 °C): 12.0%
Peptide peak ratio ([3]; in FRM001-M2, 12 w −25 °C): 13.7%
Peptide peak ratio ([3]; in FRM001-M2, 12 w −80 °C): 13.2%
Peptide peak ratio ([3]; in FRM001-M2, 16 w −25 °C): 10.2%
Peptide peak ratio ([3]; in FRM001-M2, 16 w −80 °C): 10.1%
Peptide peak ratio ([3]; in FRM001-M2, 32 w −25 °C): 9.6%
Peptide peak ratio ([3]; in FRM001-M2, 32 w −80 °C): 9.3%
Sequence: NTDPSCSCVTPLDFNHCLKNREDNGLPMLS [FRM001P10, neoantigen peptide, in FRM001-M2]
